Assay results taken from the METLIN SMRT retention time set (Domingo-Almenara et al. 2019).

Assay: gradient 5% acetonitrile 3 min, to 50% in 2 min, to 85% in 15 min, held 3 min, 100 µL/min
Conditions: column: Zorbax Extend-C18 2.1 x 50 mm; eluents: water / acetonitrile, 0.1% formic acid
Outline: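 Pure standards were analyzed in mixtures of ~100 molecules using HPLC coupled to a quadrupole time-of-flight mass spectrometer, in both positive and negative ionization mode. Separation used a Zorbax Extend-C18 column (2.1 × 50 mm, 1.8 μm) at 100 μL/min, with water and acetonitrile each containing 0.1% formic acid. Dead and dwell volumes were 40 μL and 900 μL, and data were collected over 3 months. Retention time was read from computationally picked adduct peaks, each inspected manually.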

Structure (SMILES) | RP-LC retention time
O=C(Nc1ccc(-c2nc3cccnc3s2)cc1)c1ccccc1Cl | 893 s
CCOc1ccccc1NC(=O)N1CCC(C)(C(=O)NCc2ccc(F)cc2)CC1 | 906 s
Cc1c2c(cc3c1[nH]c1ccccc13)C=NCC2 | 630 s
Cc1c(Br)cncc1C(=O)O | 620 s
O=C(c1ccc(F)c(Cl)c1)N1CCN(C(=O)c2nnn3c2COC(c2ccccc2)C3)CC1 (centres undefined) | 913 s
O=S(=O)(CCCOc1ccc(F)cc1)NC1CC1 | 785 s
COc1cccc(NC(=O)C2CCCN(c3nnc4ccc(Cl)cn34)C2)c1 (centres undefined) | 774 s
COC(=O)c1[nH]c(C)c(C(=O)C(C)N(CC2CCCCC2)C(=O)c2ccccc2)c1C (centres undefined) | 1050 s
COC(=O)c1cccc(N2C=C(C#N)S(=O)(=O)c3ccc(C)cc32)c1 | 881 s
O=c1c2ccc(O)cc2oc2cc(O)ccc12 | 612 s
Cc1cc(N2CCN(C(=O)COc3ccc(Cl)cc3)CC2)nc2nnc(C)n12 | 637 s
CCN(C1CCOCC1)C1CN(S(=O)(=O)c2cccc(F)c2)C1 | 597 s
O=C(c1ccccc1F)N1CCC(C(=O)N2CCc3ccccc32)CC1 | 822 s
COc1ccc(N2C(=O)CN(Cc3ccccc3C)[C@H]3CS(=O)(=O)C[C@H]32)cc1 | 812 s
CCc1ccc(CN2C(=O)c3c(C(=O)OC)ncn3CC2(C)C(=O)NC2CCCC2)cc1 (centres undefined) | 816 s
COc1ccc(-c2nnc(COc3ccc(NC(=O)C(NC(=O)c4ccco4)C(C)C)cc3)o2)cc1 (centres undefined) | 854 s
O=C(Cc1nnc(-c2ccc3ncccc3c2)o1)NCc1ccccc1F | 695 s
Cn1c(=O)c2cc(C(=O)N3CCN(c4ccc(F)cc4)CC3)sc2n(C)c1=O | 796 s
CNC(=O)c1cn2ccnc(-c3ccc(C)cc3)c2n1 | 755 s
Cc1cc(NC(=O)Cn2ccn3nc(-c4ccc(F)cc4)c(CO)c3c2=O)n[nH]1 | 666 s
CCOc1nc2ccccc2nc1N1CCCC(C(=O)Nc2ccc(NC(C)=O)cc2)C1 (centres undefined) | 908 s
COCCN1C(=O)c2cccn2CC1CNC(=O)c1sccc1C (centres undefined) | 689 s
Cc1ccccc1N1CCN(C(=O)c2ccnc(N3CCCC3)n2)CC1 | 996 s

Structure (SMILES) | RP-LC retention time
COc1ccc2c(c1)C=C(C(=O)NCc1ccccc1)C=CO2 | 940 s
Cc1ccc(C)c(C(=O)N2CCCC(COc3ccc(C(=O)NC(C)C)cc3)C2)c1 (centres undefined) | 916 s
Cc1ccc(-n2nc(C)c3sc(N4CCCC(C(=O)Nc5cc(Cl)ccc5C)C4)nc32)cc1 (centres undefined) | 1360 s
Cc1ccc(CNC(=O)C2CCCN(c3nnc(C)c4c(C)n(-c5ccc(C)cc5)nc34)C2)cc1 (centres undefined) | 800 s
Cc1nc(-c2cccc(-c3noc(CNS(=O)(=O)c4ccccc4)n3)c2)cs1 | 977 s
O=C(c1nnc(-c2ccc(S(=O)(=O)N3CCCCC3)cc2)o1)N1CCC(Cc2ccccc2)CC1 | 1230 s
Cc1ccc(C(=O)N2CCC(c3nc4ccncc4n3CC(C)C)C2)s1 (centres undefined) | 569 s
CCOC(=O)c1cn(CC(=O)NC2CCCC2)c2nc(C)ccc2c1=O | 686 s
CCc1nc(-c2csc(S(=O)(=O)N3CCCC(C(=O)Nc4ccc(Cl)cc4C)C3)c2)no1 (centres undefined) | 1100 s
Cc1noc(C)c1C(=O)N1CCCC1c1ccc(Cl)cc1 (centres undefined) | 855 s
CC(C)(Oc1ccc(Cl)cc1)C(=O)N1CCN(CC(O)c2cccs2)CC1 (centres undefined) | 603 s
O=C(C(=O)N1CCOCC1)c1c(-c2ccccc2)cc2ccccn12 | 798 s
CN(C)c1cc(N2CCCC(NC(=O)Cc3cccs3)C2)ncn1 (centres undefined) | 596 s
CCCn1cc(C(=O)NCCCOCC)c(S(=O)(=O)N2CCN(c3cccc(Cl)c3)CC2)n1 | 1110 s
CCn1nnc2cc(-c3noc(CNC(=O)Cc4ccc(Cl)cc4)n3)ccc21 | 816 s
CCOc1ccc(-c2noc(-c3nn(-c4cccc(OC)c4)ccc3=O)n2)cc1 | 938 s
O=C1Nc2ccc(S(=O)(=O)N3CCN(c4ccccn4)CC3)cc2C1=C1CCCC1 | 662 s
CCNS(=O)(=O)c1cc(-c2c(CC)noc2NC(C)=O)ccc1OC | 668 s
CN1CCn2ccnc2C12CCN(C(=O)Nc1ccc(Cl)cc1C(F)(F)F)CC2 | 650 s
COc1ccc(-c2nc(-c3cn(Cc4cccc(F)c4)nn3)no2)cc1 | 983 s
COc1ccc(NC(=O)c2cn3c(n2)CSCC3)cc1OC | 631 s
O=C(Cn1c(=O)c2cccn2c2ccc(F)cc21)N1CCOCC1 | 686 s
O=C(Cc1csc(NC(=O)c2ccco2)n1)NCc1cccs1 | 668 s

Structure (SMILES) | RP-LC retention time
CCCn1cc(S(=O)(=O)NCc2cccc(Cl)c2)c2cccnc21 | 950 s
COc1ccc(C2(C(=O)N3CCO[C@@H](COc4ccccn4)[C@@H]3c3ccccc3)CC2)cc1 | 1070 s
NC(=O)C1CCN(Cc2nc(-c3ccc(N4CCSCC4)nc3)no2)CC1 | 597 s
Cc1cc(C)cc(-c2nnc3ccc(Cl)nn23)c1 | 859 s
O=C(NC1CC1)c1cc(N2CCCC2)nc2ccccc12 | 577 s
CCN(CC)CCNCc1ccc(-c2ccc(OC)c(Cl)c2)o1 | 566 s
CCCCN(CC)c1nc(C)nc2c1c(C)cn2-c1c(C)cc(C)cc1C | 945 s
O=C(CCc1csc(NC(=O)c2cccs2)n1)NCCc1c[nH]c2ccccc12 | 755 s
CCc1ccc(NS(=O)(=O)c2c(C)nc3sc4cc(C)ccc4n3c2=O)cc1 | 1240 s
Cc1ccc2c(c1)OCC(=O)N2Cc1nc(-c2cccc(F)c2)no1 | 1070 s
CCCNC(=O)N(C1CCOCC1)C1CCN(C(=O)c2ccc(C)s2)CC1 | 747 s
COc1cc(-c2nc3c(C)cccn3c2Nc2ccc(C)cc2)ccc1O | 684 s
Cc1ccc(-c2noc(Cn3cnc4c(cnn4-c4ccc(C)c(Cl)c4)c3=O)n2)cc1 | 1270 s
CCCn1ccc2sc(C)c(C(=O)NCC(C)C)c2c1=O | 800 s
Cc1ncc([N+](=O)[O-])n1CCOC(=O)c1ccc(F)cc1 | 732 s
C=Cc1ccc(CN2CCCN(c3ncccc3-c3nc(C(C)C)no3)CC2)cc1 | 785 s
Cc1noc(C)c1CC(=O)NCCc1noc(C2CC2)n1 | 628 s
CCN(CC)C(=O)c1cnc2snc(C)c2c1N1CCC(C(=O)Nc2c(C)cc(C)cc2C)CC1 | 901 s
CCCC(=O)Nc1nc(-c2ccccc2)c(-c2ccccc2)s1 | 1160 s
CCc1ccc(NC(=O)Cc2c(C)nn(-c3nc(-c4ccc(Cl)cc4)cs3)c2C)cc1 | 972 s
CC(C)CN1CCn2cc(S(=O)(=O)NCc3cccc(F)c3)cc2C1=O | 813 s
Cc1ccc(S(=O)(=O)NCCc2cn(CC(C)C)c3ncccc23)cc1C | 978 s
O=C(CCC1CCCN(S(=O)(=O)c2ccc(F)cc2)C1)NC1CCS(=O)(=O)C1 (centres undefined) | 731 s

Structure (SMILES) | RP-LC retention time
CCN1CCN(CCNC(=O)CN2C(=O)C3CCCCN3c3ccc(C(=O)N4CCCC4)cc32)CC1 (centres undefined) | 591 s
O=C(c1ccn2c(-c3ccc(Cl)cc3)nnc2c1)N1CCN(c2ccccn2)CC1 | 596 s
CCN(CC)S(=O)(=O)c1cc(-c2nnc(-c3ccccc3OC)o2)ccc1Cl | 1090 s
O=C(Cn1c(=O)c2cc(-c3cccs3)nn2c2ncccc21)NCCc1ccccc1 | 829 s
COc1ccc(Br)c(C(=O)NCC#CCN(C(C)C)C(C)C)c1 | 567 s
CC(=O)NCC(=O)N1CCCn2cc(-c3ccccc3F)nc21 | 580 s
CCC(=O)NCc1nc2c(n1C)CN(S(=O)(=O)c1cccc(F)c1)CC2 | 558 s
Cc1ccc(Nc2c(-c3ccc(Br)cc3)nc3cnccn23)c(C)c1 | 1170 s
COc1ccccc1CNc1ncc(C(=O)O)c(-c2ccncc2)n1 | 638 s
O=C(CC(c1cccc(F)c1)n1cccc1)N1CCN(c2ccccn2)CC1 (centres undefined) | 686 s
O=C(NCC1CCCO1)c1n[nH]c2c1CCCCCC2 (centres undefined) | 724 s
Cc1ccc(-n2nc(N3CCCC(C(=O)NC4CCCCCCC4)C3)ccc2=O)cc1Cl (centres undefined) | 1110 s
O=C(c1ccc(N2CCCCC2)c(S(=O)(=O)N2CCCCC2)c1)N1CCN(c2ccccn2)CC1 | 813 s
COc1ccc(-c2noc(-c3nnn4c3COC(c3ccc(F)cc3)C4)n2)cc1OC (centres undefined) | 1020 s
COCCCNC(=O)CN1c2ccccc2NC2=C(C(=O)CC(C)(C)C2)C1c1ccc(C)cc1 (centres undefined) | 822 s
Cc1oc(C2CCN(C(=O)C3CCN(S(=O)(=O)N4CCC(C)CC4)CC3)CC2)nc1C(=O)N1CCCC1 | 861 s
CCn1c(C2CCN(S(=O)(=O)c3ccc(Cl)cc3)C2)nc2cccnc21 (centres undefined) | 796 s
O=C(NC1CC1)c1ccc(N2CCC(NCc3ccc(C(F)(F)F)cc3)C2)nc1 (centres undefined) | 663 s
Cc1ccc(CNC(=O)N2CC(N(C3CCOCC3)S(C)(=O)=O)C2)cc1 | 591 s
CCCNC(=O)N1CCC(c2noc(-c3ccncc3)n2)C1 (centres undefined) | 642 s
